Measurements reported in ChEMBL document CHEMBL1130086, “Potent HIV protease inhibitors containing a novel (hydroxyethyl)amide isostere” (J Med Chem, 1997).
pEC50, pIC50, pKi: −log10 of the molar value.

Experiments:
[1] = target: T1, Human immunodeficiency virus type 1 protease (Human immunodeficiency virus 1, UniProt Q72874); assay: Inhibitory concentration against recombinant HIV-1 protease expressed in Escherichia coli was tested by HPLC based assay
[2] = test system: Human immunodeficiency virus 1; assay: Inhibitory concentration against HIV-1 strain 111B in acutely infected C8166 T cells; assay type: functional, organism-based; conditions: Human immunodeficiency virus 1, C8166
[3] = target: T1, Human immunodeficiency virus type 1 protease; assay: binding affinity against HIV-1 protease
C8166 = assay: Inhibitory concentration against HIV-2 rod strain in acutely infected C8166 T cells; assay type: functional, cell-based; conditions: Homo sapiens
[4] = target: T1, Human immunodeficiency virus type 1 protease; assay: Inhibitory concentration against recombinant HIV-1 111B protease expressed from Escherichia coli was tested by HPLC based assay
[5] = target: T1, Human immunodeficiency virus type 1 protease; assay: binding affinity against HIV-1 111B strain in protease

Compound | pIC50 [1] | pEC50 [2] | other results
CC(C)[C@H](NC(=O)OCc1ccccc1)C(=O)N[C@@H](Cc1ccccc1)[C@H](O)CNC(=O)CCC(=O)NC(C)(C)C | 5.08 | – | –
CC(C)[C@H](NC(=O)OCc1ccccc1)C(=O)N[C@@H](Cc1ccccc1)[C@H](O)CNC(=O)C[C@@H](C(=O)NC(C)(C)C)C(C)(C)C | 6.90 | – | –
CCC(CC)NC(=O)C[C@@H](C(=O)NC[C@@H](O)[C@H](Cc1ccccc1)NC(=O)[C@@H](NC(=O)c1ccc2ccccc2n1)[C@H](C)O)C(C)(C)C | 8.44 | 8.15 | –
CC(C)[C@H](NC(=O)OCc1ccccc1)C(=O)N[C@@H](Cc1ccccc1)[C@H](O)CNC(=O)[C@@H](CC(=O)NC(C)(C)C)C(C)(C)C | 7.60 | – | –
CCC(CC)NC(=O)C[C@@H](C(=O)NC[C@@H](O)[C@H](Cc1ccccc1)NC(=O)[C@H](CC(N)=O)NC(=O)c1cnc2ccccc2n1)C(C)(C)C | 8.72 | 7.46 | –
CC(C)(C)[C@@H](CC(=O)Nc1ccccc1)C(=O)NC[C@@H](O)[C@H](Cc1ccccc1)NC(=O)OCc1ccccc1 | 7.85 | – | –
CC(C)[C@H](NC(=O)OCc1ccccc1)C(=O)N[C@@H](Cc1ccccc1)[C@H](O)CNC(=O)C[C@H](C(=O)NC(C)(C)C)C(C)(C)C | 5.31 | – | –
CCC(CC)NC(=O)C[C@@H](C(=O)NC[C@@H](O)[C@H](Cc1ccccc1)NC(=O)[C@@H](NC(=O)c1ccc2ccccc2n1)C(C)C)C(C)(C)C | 8.60 | 8.43 | pKi [3]: 11.12
CC(C)[C@H](NC(=O)OCc1ccccc1)C(=O)N[C@@H](Cc1ccccc1)[C@H](O)CN1CCCC[C@H]1C(=O)NC(C)(C)C | 7.21 | – | –
CC(C)(C)[C@@H](CC(=O)NC1CCCCC1)C(=O)NC[C@@H](O)[C@H](Cc1ccccc1)NC(=O)OCc1ccccc1 | 6.87 | – | –
CCC(CC)NC(=O)C[C@@H](C(=O)NC[C@@H](O)[C@H](Cc1ccccc1)NC(=O)[C@@H](NC(=O)OCc1ccccc1)C(C)C)C(C)(C)C | 8.54 | 8.03 | –
CC(C)[C@H](NC(=O)c1ccc2ccccc2n1)C(=O)N[C@@H](Cc1ccccc1)[C@H](O)CN1CC[C@@H](OCc2ccncc2)C[C@H]1C(=O)NC(C)(C)C | – | 8.30 | pEC50 (C8166): 7.60; pIC50 [4]: 8.40; pKi [5]: 10.51
CCC(CC)NC(=O)C[C@@H](C(=O)NC[C@@H](O)[C@H](Cc1ccccc1)NC(=O)[C@@H](NC(=O)c1cnc2ccccc2n1)C(C)C)C(C)(C)C | 8.66 | 8.24 | –
CC(C)[C@H](NC(=O)OCc1ccccc1)C(=O)N[C@@H](Cc1ccccc1)[C@H](O)CNC(=O)C1CCCC[C@H]1C(=O)NC(C)(C)C (some centres undefined) | 6.85 | – | –
CC(C)C(NC(=O)C[C@@H](C(=O)NC[C@@H](O)[C@H](Cc1ccccc1)NC(=O)OCc1ccccc1)C(C)(C)C)C(C)C | 7.24 | – | –
CC(C)(C)NC(=O)C[C@@H](C(=O)NC[C@@H](O)[C@H](Cc1ccccc1)NC(=O)OCc1ccccc1)C(C)(C)C | 7.72 | – | –
CC(C)NC(=O)C[C@@H](C(=O)NC[C@@H](O)[C@H](Cc1ccccc1)NC(=O)OCc1ccccc1)C(C)(C)C | 7.72 | – | –
CCC(CC)NC(=O)C[C@@H](C(=O)NC[C@@H](O)[C@H](Cc1ccccc1)NC(=O)[C@@H](NC(=O)c1cnc2ccccc2n1)[C@H](C)O)C(C)(C)C | 8.52 | 7.89 | –
CCC(CC)NC(=O)C[C@@H](C(=O)NC[C@@H](O)[C@H](Cc1ccccc1)NC(=O)[C@H](CC(N)=O)NC(=O)OCc1ccccc1)C(C)(C)C | 8.42 | 6.90 | –
CCC(CC)NC(=O)C[C@@H](C(=O)NC[C@@H](O)[C@H](Cc1ccccc1)NC(=O)[C@H](CC(N)=O)NC(=O)c1ccc2ccccc2n1)C(C)(C)C | 8.66 | 7.96 | –
CCC(CC)NC(=O)C[C@@H](C(=O)NC[C@@H](O)[C@H](Cc1ccccc1)NC(=O)OCc1ccccc1)C(C)(C)C | 7.82 | – | –
CCCC(CCC)NC(=O)C[C@@H](C(=O)NC[C@@H](O)[C@H](Cc1ccccc1)NC(=O)OCc1ccccc1)C(C)(C)C | 7.41 | – | –
CC(C)[C@H](NC(=O)OCc1ccccc1)C(=O)N[C@@H](Cc1ccccc1)[C@H](O)CNC(=O)[C@H](CC(=O)NC(C)(C)C)C(C)(C)C | 8.52 | 7.82 | –
CCC(CC)NC(=O)C[C@@H](C(=O)NC[C@@H](O)[C@H](Cc1ccccc1)NC(=O)[C@@H](NC(=O)OCc1ccccc1)[C@H](C)O)C(C)(C)C | 8.09 | 6.78 | –
CC(C)[C@H](NC(=O)OCc1ccccc1)C(=O)N[C@@H](Cc1ccccc1)[C@@H](O)CNC(=O)[C@H](CC(=O)NC(C)(C)C)C(C)(C)C | 7.30 | – | –
